The record followed here is ChEMBL document CHEMBL3507680, “University of Dundee, Gates Library screen for HepG2 cell viability”.

The nature of this series: Human HepG2 cell viability assay in 384 well format. In kind it is toxicity, cell-based. On the set-up: dose 125 nL, time 70.5 hour; concentration not given beside the values. The following applies: HepG2 cells, read-out: Inhibition.
Take `c1ccc(OCC2C[C@@H]3[C@@H](C2)OCCN3Cc2ccoc2)nc1` (stereo partly drawn): the cytotoxicity at 70.5 h is -0.172%. The result for `CN(Cc1cccc(OCCO)c1)Cc1cccc2ncccc12` reads 19.3%; that for `CCc1c(C)nn(CC(=O)NC(C(=O)O)c2c(C)n[nH]c2C)c1C` (stereo not drawn), -7.94%. Take `CC(CN1CCOCC1)NC(=O)Nc1cccnc1-n1cccn1` (stereo not drawn): the cytotoxicity at 70.5 h was -14%. The same measure for `O=C(NCCN1CCOCC1)c1cc(-c2ccccc2Cl)[nH]n1`: 1.45%; for `CN(C)[C@H]1CCN(c2nc(C(C)(C)C)nc3c2cnn3C)C1`: 27.9%. `Cn1cnc(S(=O)(=O)N2CCCc3cccc(F)c32)c1Cl`: the cytotoxicity at 70.5 h was -0.174%.

With `Cc1c(C(=O)N2CCNC(=O)C2)sc2nc[nH]c(=O)c12`, the cytotoxicity at 70.5 h amounted to 13.4%. Turning to `Cn1cc(CN2CCC3(CC2)CCN(C(=O)c2cscn2)CC3)cn1`, the cytotoxicity at 70.5 h is -1.71%. The same measure for `COc1nn(C)cc1C(=O)NCC(OC)c1ccccc1C` (stereo not drawn): -3.02%; for `Cc1nc(C(C)NC(=O)c2cn(C/C=C/c3ccccc3)nn2)n[nH]1` (stereo not drawn): -13.1%. Regarding `Cc1noc(C)c1CN1CCO[C@H]2CN(Cc3nccn3C)C[C@H]21`, the cytotoxicity at 70.5 h turned out to be 0.477%. On to `CCN(Cc1cn(C)nc1-c1ccc2c(c1)OCCO2)CC1CCCO1` (stereo not drawn), for which the cytotoxicity at 70.5 h is -6.76%.

As for `Cc1nn(C)c(C)c1S(=O)(=O)NCC1(C(N)=O)CCOCC1`, the cytotoxicity at 70.5 h was -11.5%. In the case of `Cc1c[nH]c(C(=O)N2CCCC2c2ccc(C(=O)N3CCSCC3)s2)n1` (stereo not drawn), the cytotoxicity at 70.5 h is -11.4%.

`CC(C)NC(=O)C1CCN(C(C)C(=O)N2CCc3sccc3C2)CC1` (stereo not drawn): the cytotoxicity at 70.5 h was -2.44%. As for `Cc1cc(CNC(=O)N2CCN(c3ccc(Cl)cn3)CC2)c(C)o1`, the cytotoxicity at 70.5 h turned out to be 18.2%. The same measure for `CN(C(=O)COc1ccc(-c2noc(C3CCCO3)n2)cc1)C1CC1` (stereo not drawn): 0.982%; for `Cc1nn(C)cc1-c1cc(C(F)(F)F)c2c(C)nn(CC(=O)O)c2n1`: 32%; for `O=C(CC1CCN(c2cccnn2)CC1)NCCO`: -6.47%. Turning to `CCN1CCN(c2ccc(CNC(=O)c3cc(C)on3)cn2)CC1`, the cytotoxicity at 70.5 h is -4.09%. `COc1c(CNCCc2c[nH]c3cc(F)ccc23)c(C(C)C)nn1C`: the cytotoxicity at 70.5 h is 4.03%. The same measure for `CN1CCc2ccc(NCc3cscn3)cc2C1=O`: 2.5%; for `Cc1noc(C(C)C)c1C(=O)NCCCN1CCCCCC1=O`: -7.03%; for `CCc1ccc(CN2CCC3(CCCN(C(=O)N(C)C)C3)C2)o1` (stereo not drawn): -10.4%.

On to `CC(=O)Nc1ccc(C(=O)N(C)C(C)Cc2cc(C)ccn2)cn1` (stereo not drawn), for which the cytotoxicity at 70.5 h is 1.81%.

For the compound `COCCC(=O)N1CCCN(Cc2nccn2C(C)C)CC1`, the cytotoxicity at 70.5 h is -1.06%. The same measure for `CNC(=O)CCCNc1cc(C)nc2cc(C)nn12`: 5.3%; for `CCC(O)CN1CCN(C(=O)c2cccc(CC#N)c2)CC1` (stereo not drawn): 1.07%; for `O=S1(=O)NCC2(CCN(c3ncccn3)CC2)COc2ccccc21`: 47.5%. The result for `CC1c2ncc(Cn3cncn3)n2CCN1C(=O)N(C)C` (stereo not drawn) reads -7.73%. On to `COCCNC(=O)c1sccc1N(C)S(=O)(=O)c1ccc(Cl)cc1`, for which the cytotoxicity at 70.5 h is -22.2%. With `CCN(CC)S(=O)(=O)c1cc(Br)ccc1OC`, the cytotoxicity at 70.5 h is -7.07%. As to `O=C(CCc1nc(Cl)n[nH]1)N1CCC2(CCCN(CC3CCC3)C2=O)C1` (stereo not drawn), the cytotoxicity at 70.5 h is -7.56%.

With `Cn1ncc(NC(=O)Cn2ccc(-c3ccc(F)cc3)n2)n1`, the cytotoxicity at 70.5 h was 0.148%.

With `CC(NCC1CCN(CCO)CC1)c1ccc(F)c(Cl)c1` (stereo not drawn), the cytotoxicity at 70.5 h was found to be 0.00897%. On to `c1csc(CN2CCC3(COCCN(CC4CC4)C3)C2)n1` (stereo not drawn), for which the cytotoxicity at 70.5 h is -3.37%.

With `CCc1cc(-c2ccnc3c2ccn3C)nc(N2CCOCC2)n1`, the cytotoxicity at 70.5 h is 1.11%. Consider `NC(=O)c1ccc(N2CCN(Cc3cccc4nsnc34)CC2)nc1`, for which the cytotoxicity at 70.5 h is -4.59%. The same measure for `CCc1nc(N2CCC3(CCC(=O)N(Cc4ccncc4)C3)CC2)no1`: 10.6%. With `CN1CCc2nc(C3CCCN(S(=O)(=O)c4ccccc4)C3)ncc2C1` (stereo not drawn), the cytotoxicity at 70.5 h was -1.43%.

As for `c1ccc(Cc2noc(CN3CCc4cncnc4C3)n2)cc1`, the cytotoxicity at 70.5 h is -9.62%. The same measure for `CNC(=O)CN1CCC2(CCCN(CC3CCOC3)C2)CC1` (stereo not drawn): -6.27%; for `Cn1cccc1C(=O)N1CCC2(CC1)CN(c1ccccc1)C(=O)CO2`: -14.1%; for `CC(C)NC(=O)C1CN(C(=O)Cc2cccc(F)c2)CC12CCOCC2` (stereo not drawn): 10.1%. `CC(C)c1nnc2n1CCN(C(=O)c1cccc(S(C)(=O)=O)c1)C2`: the cytotoxicity at 70.5 h worked out at 17%. The result for `Cc1ccc2oc(C(=O)N3CCCC(c4noc(C)n4)C3)cc2n1` (stereo not drawn) reads -5.41%; that for `Cc1cccc(C(=O)N2Cc3ccccc3C3(CCN(C)CC3)C2)n1`, 7.65%; that for `COCCC(=O)NC[C@H]1CC[C@H](C(c2ccccn2)N(C)C)CC1` (stereo partly drawn), -2.06%.

`CCCNC(=O)C(C)Oc1ccc(F)cc1` (stereo not drawn): the cytotoxicity at 70.5 h was -12.9%.

With `CCOc1ccc(NC(=O)NCc2cccnc2OCC)cc1`, the cytotoxicity at 70.5 h is -9.72%. With `c1cnc(N2CC3(CCN(C4CCOC4)CC3)c3ccccc32)nc1` (stereo not drawn), the cytotoxicity at 70.5 h was -6.16%. The same measure for `COc1ccc2c(c1)OCC(C(=O)NCc1ncc3c(n1)CCC3)C2` (stereo not drawn): -8.14%; for `COc1ccc(-n2nnnc2C2(NCc3ccco3)CCCCC2)cc1`: -9.96%; for `Cc1ccc(N2CCCC(N(C)Cc3cc(C)no3)C2)nn1` (stereo not drawn): -2.5%. On to `CCS(=O)(=O)N1C[C@H]2CN(CC3CC3)C(=O)[C@H]2C1`, for which the cytotoxicity at 70.5 h is -0.251%. In the case of `Cc1cc(C)c(CNC(=O)N2CCN(c3ncccn3)CC2)c(=O)[nH]1`, the cytotoxicity at 70.5 h turned out to be 0.0542%. Turning to `COc1ncccc1CNC(=O)CN1CCCCCC1=O`, the cytotoxicity at 70.5 h is -16.5%.

On to `Cc1csc(N(C)C(=O)C(c2c(F)cccc2Cl)N(C)C)n1` (stereo not drawn), for which the cytotoxicity at 70.5 h is -0.598%. The same measure for `Cc1cccc(-c2nc(CNC3CCc4nc(C)nn4C3)no2)c1` (stereo not drawn): -3.36%; for `O=C(NC1CC1)c1ccc2ccc(N3CCN(CC4CC4)CC3)n2c1`: 6.77%; for `Cc1ccc(S(=O)(=O)NC(=O)COc2ccc(CC#N)cc2)s1`: 2.71%. Consider `Cc1nc(C2CCCN(C(=O)c3c(C)nn4cccnc34)C2)no1` (stereo not drawn), for which the cytotoxicity at 70.5 h is -4.04%. `CC1=N[C@@]2(CC[C@@H]3CN(S(=O)(=O)CC(C)C)C[C@@H]32)C(=O)N1CC(C)C`: the cytotoxicity at 70.5 h was -5.23%. The result for `CC(=O)NCC(=O)N1CCN(CC2CC2)c2ncccc2C1` reads -9.1%.

In the case of `O=C1CCC(=O)N1c1nn(Cc2ccc(F)cc2)cc1Cl`, the cytotoxicity at 70.5 h came to 18.7%. Turning to `COc1ccccc1C(=O)N(C)Cc1ncc(C)c(OC)c1C`, the cytotoxicity at 70.5 h was -6.37%. In the case of `O=C(c1ncoc1C1CC1)N1CCN(CCOc2ccccc2)CC1`, the cytotoxicity at 70.5 h turned out to be 26%.

Turning to `O=C(Cn1ccc2ccccc21)N1CCC(Oc2ncccc2Br)CC1`, the cytotoxicity at 70.5 h is -3.13%.

`CCc1ncnc2c1CCN(CC(=O)N(C)C)CC2`: the cytotoxicity at 70.5 h was -1.77%. The result for `CNC(=O)[C@H]1C[C@@H]2CN(S(=O)(=O)c3cccc(C)c3)C[C@@H]2N1C` reads 2.15%; that for `CS(=O)(=O)N1CCC(Oc2ccc(C(=O)NC3CCCC3)cc2Cl)CC1`, -7.15%; that for `Cc1nn(C)c(C)c1CN(Cc1cccn1-c1ncccn1)C(C)C`, 3.54%. Turning to `CC(C)COC(=O)N1CC(=O)N(Cc2ccco2)CC(O)C1` (stereo not drawn), the cytotoxicity at 70.5 h is -3.84%. The result for `COC(=O)N1CCC(Nc2ccc(C#N)c(Cl)c2)C1` (stereo not drawn) reads 1.68%; that for `Cc1ccc(-c2nc(CC3CCN(C)CC3)no2)cc1N1CCNC1=O`, -7.33%.

As to `O=C(NC1CCN(c2cc(-n3ccnc3)ncn2)CC1)c1ccncc1`, the cytotoxicity at 70.5 h is -10.4%. `O=C(Nc1ccc(S(=O)(=O)Nc2c(F)cccc2F)cc1)N1CCCC1`: the cytotoxicity at 70.5 h was -6.84%.

Take `CC(C)n1ccnc1C1CCCN(c2ccnc3ccccc23)C1` (stereo not drawn): the cytotoxicity at 70.5 h is -0.236%. For the compound `O=C(NCc1cccnc1N1CCCC(O)C1)c1ccc2[nH]nnc2c1` (stereo not drawn), the cytotoxicity at 70.5 h is -25%. The same measure for `Cc1ccc(S(=O)(=O)N2CCC(N3CCCCC3)CC2)cc1C`: 5.06%; for `CN(C(=O)CN1CCC(NC(=O)c2cccs2)CC1)c1ccccc1`: -6.85%. The result for `O=C1CC(c2ccccc2)C2(CCN(C(=O)c3cnccn3)CC2)N1` (stereo not drawn) reads -8.06%; that for `Cc1ncc(-c2ccncc2)c(C2CCN(C(=O)c3ccco3)CC2)n1`, -2.42%; that for `O=C(CCc1n[nH]c2c1CCCC2)N1C[C@@H]2CC[C@H](C1)N(CC1CC1)C2`, -7.45%.

For the compound `CCNC(=O)[C@@H]1C[C@@H](n2cc(CN(CC)CC)nn2)CN1`, the cytotoxicity at 70.5 h is -13.5%. The result for `c1ccc2oc(N3CCCCC3Cn3cncn3)nc2c1` (stereo not drawn) reads 25.6%. With `NC1CCc2nc(-c3cccnc3)nc(Nc3ccc(F)cc3)c2C1` (stereo not drawn), the cytotoxicity at 70.5 h came to 3.41%. The same measure for `CCS(=O)(=O)NCCNCc1ccc(Cl)c2cccnc12`: -0.568%.

On to `CCN(CC(=O)NC(C)C)S(=O)(=O)N1CCCCCC1`, for which the cytotoxicity at 70.5 h was -5.99%. The same measure for `CCN1CCOC(CNCc2cccc(OCc3ccccn3)c2)C1` (stereo not drawn): -6.84%. In the case of `Clc1cc(NCc2nccs2)nc2[nH]ccc12`, the cytotoxicity at 70.5 h was -30.7%.

Regarding `Cc1cccc(-c2ccc(C(=O)NCC3CCCOC3)c(=O)[nH]2)c1` (stereo not drawn), the cytotoxicity at 70.5 h was -9.36%.

On to `COCCOc1ncccc1C(=O)N(C)c1ccc(OC)c(OC)c1`, for which the cytotoxicity at 70.5 h is -11.7%. For `CN(CCCNC(=O)C1CCc2cn[nH]c2C1)c1ccc(F)cc1` (stereo not drawn), the cytotoxicity at 70.5 h turned out to be 16.9%. Consider `Cc1cc(CN2CCC(N(C)Cc3noc(C4CC4)n3)C2)no1` (stereo not drawn), for which the cytotoxicity at 70.5 h was found to be 13%.

As for `COc1ccc(N(c2ccc(OC)cc2)c2ccc(C(=O)O)s2)cc1`, the cytotoxicity at 70.5 h is -3.85%.

`CC(C)(C)NC(=O)N1CCN(Cc2cccnc2)CC1`: the cytotoxicity at 70.5 h is -3.39%.
